Data on ten compounds can be found in US20230165865A1, “HETEROARYLDIHYDROPYRIMIDINE DERIVATIVES AND METHODS OF TREATING HEPATITIS B INFECTIONS” (Janssen Pharmaceutica NV, priority 2018, published 2023).

One series relates to HBV. Briefly: Anti-viral assay in HepG2.2.15 cells: anti-HBV activity, HBV DNA in culture medium by qPCR. Type of series: cell-based. The conditions noted are these: HepG2.2.15 cells, 6 days treatment, HBV DNA by qPCR; read-out: EC50. The method in brief:
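Cells in 2% FBS medium treated 6 days, compound and medium refreshed at day 3; 8-point 1:3 dilutions in triplicate, top 10 or 1 uM (antiviral) and 100 uM (cytotoxicity). Extracellular viral DNA quantified by qPCR, giving EC50 and CC50.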

Another series deals with HepG2.2.15 cells. Briefly: Cytotoxicity determination in HepG2.2.15 cells (CCK-8 assay). It counts as cell-based. The conditions noted are these: 6 days treatment, CCK-8, highest concentration 100 uM. The method in brief:
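HepG2.2.15 cells (5,000/well, 2% FBS medium) were treated for 6 days, with medium and compound refreshed at day 3. Dosing was an 8-point 1:3 series from 100 uM, in triplicate. Viability was measured by CCK-8 after 2.5 h at 37 °C (A450, 630 nm reference), and CC50 was calculated.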
(Formazan colour is commonly taken as a measure of viable cells.)

Series [1] can be described thus: Pharmacokinetic study after intravenous and oral administration in male SD rats. Type of series: in vivo. The protocol: Male SD rats with a weight range of 250-300 g (Si Bei Fu Laboratory Animal Technology Co. Ltd, China) were used. Animals were fasted overnight and free access to food 4 hours after dosing.
Test compound (correction factor: 1.00) was dissolved in a 20% hydroxypropyl-β-cyclodextrin (HP-β-CD) at a final concentration of 1 mg/ml for the intravenous (IV) formulation and at final concentrations of 0.5 mg/ml for the oral (PO) formulation.
The intravenous formulation was dosed at 2 ml/kg to obtain a dose of 2 mg/kg. The oral formulations were dosed at 10 ml/kg to obtain final doses of 5 mg/kg.
Blood samples were taken at 5, 15 and 30 min, 1, 2, 4, 8 and 24 h after intravenous dose administration. Blood samples were taken at 15 and 30 min, 1, 2, 4, 8, 12 and 24 h after oral dose administration.
Approximately 0.20 mL blood will be collected into BD blood collection tubes containing Sodium Fluoride (NaF), Potassium Oxalate (KoX) and K3-EDTA at each time point. Samples were placed immediately on melting ice and plasma was obtained following centrifugation at 4° C. for 5 minutes at approximately 4000×g. Plasma samples were adjusted to pH 3-4 by phosphoric acid and stored at −75±15° C. prior to analysis. The whole process was completed within 1 hour.
Plasma samples were analyzed using LC-MS/MS methods. The lower limit of quantification (LLOQ) for plasma was 1.0 ng/ml.
A non-compartmental analysis using the “Linear up log down” rule was used for all data. A limited pharmacokinetic analysis was performed using Phoenix™ Professional (Version 6.1). Results: See table 10 below for plasma PK results.

The test system of another series is human hepatocytes. Briefly: Metabolic stability of test compound in human hepatocyte cell. Type of series: in vitro ADME. The protocol:
(§1) • 1. The cryopreserved human hepatocytes cells were thawed in 37° C. water bath and diluted with pre-warmed incubation medium to a working cell density of 1×10^6 viable cells/mL. • 2. The 198 μL pre-warmed hepatocyte suspensions were spiked with 2 μL of 100 μM compound or reference compound(Verapamil) at a final concentration of 1.0 μM in a 96-well plate. The plate was incubated at 37° C., 900 rpm. All incubations will be performed in singlet. • 3. 25 μL aliquots of well contents were collected at time points of 0, 15, 30, 60, 90 and 120 minutes. The reactions were stopped by the addition of 6-fold volumes of cold acetonitrile with internal standards. • 4. After centrifugation for 25 minutes at 3,220 g. Aliquot of 100 μL of the supernatant was mixed with 100 μL of ultra-pure H2O and then used for LC-MS/MS analysis.
(§2) All calculations were carried out using Microsoft Excel. Peak areas were determined from extracted ion chromatograms. Determine the in vitro half-life (t1/2) of parent compound by regression analysis of the percent parent disappearance vs. time curve.
(§3) The in vitro half-life (in vitro t1/2) is determined from the slope value k:
(§4) Conversion of the in vitro t1/2(in min) into the in vitro intrinsic clearance (in vitro CLint, in μL/min/10^6 cells) is done using the following equation:
(§5) V=incubation volume (0.2 mL);
(§6) N=number of hepatocytes per well (0.2×10^6 cells).
(§7) Conversion of the in vitro t1/2(in min) into the scale-up intrinsic clearance (CLint(liver), in mL/min/kg) was done using the following equation:
(§8) CLint(liver)=kV/N×scaling factor

Test in series [2]: as above
Type of series: in vitro ADME. The conditions noted are these: cryopreserved human hepatocytes (suspension), human hepatocytes. The protocol:
as §1, §2, §3, §4, §5, §6, §7, §8

Series [3] in a line: Pharmacokinetic and tissue distribution study via intravenous and oral administration in male C57BL/6 mice. Type of series: in vivo. The protocol: Male C57BL/6 mice with a weight range of 20-25 g (Hua Fu Kang, China) were used. Animals were fasted overnight and free access to food 4 hours after dosing.
Test compound (correction factor: 1.00) was dissolved in a 20% hydroxypropyl-β-cyclodextrin (HP-β-CD) at a final concentration of 1 mg/ml for the intravenous (IV) formulation and at final concentrations of 0.5 mg/ml for the oral (PO) formulation. The intravenous formulation was dosed at 2 ml/kg to obtain a dose of 2 mg/kg. The oral formulations were dosed at 10 ml/kg to obtain final doses of 5 mg/kg.
Blood samples were taken at 7 and 20 min, 1, 2, 4, 8 and 24 h after intravenous dose administration. Blood and liver samples were taken at 30 min, 1, 2, 4, 8, 12 and 24 h after oral dose administration.
Approximately 0.020 mL blood will be collected into BD blood collection tubes containing K3-EDTA at each time point. Samples were placed immediately on melting ice and plasma was obtained following centrifugation at 4° C. for 5 minutes at approximately 4000×g. Plasma samples were adjusted to pH 3-4 by phosphoric acid and stored at −75±15° C. prior to analysis. The whole process was completed within 1 hour.
Liver samples were collected at adopted time point, and the vial containing the tissues sample was snap-frozen in liquid nitrogen right away and kept at −75±15° C. prior to analysis. All liver samples were weighed and homogenized with phosphoric acid solution (pH to 3-4) by liver weight (g) to phosphoric acid solution volume (mL) ratio 1:4 before analysis.
Plasma and liver samples were analyzed using LC-MS/MS methods. The lower limit of quantification (LLOQ) for plasma was 1.0 ng/ml and for liver was 2.5 ng/g. A non-compartmental analysis using the “Linear up log down” rule was used for all data. A limited pharmacokinetic analysis was performed using Phoenix™ Professional (Version 6.1).

Where [4] appears, read: rat plasma, comparing with reference 2.
Setting [5] is: mice plasma, IV, nominal 2 mg/kg.

A word on the EC50: it is the concentration that produces a half-maximal response. Broadly, the CC50 is the concentration that lowers cell viability or growth by half. Low values mean greater toxicity to the cells, high ones lower toxicity to the cells. As a reminder, the Cmax is the highest concentration seen after dosing. `COC(=O)C1=C(CN2CCN3C(=S)N(CC(C)(C)C(=O)O)CC3C2)NC(c2nccs2)=NC1c1ccc(F)cc1Cl` (single isomer, unassigned) [Compound 4B, 3-(7-((6-(2-chloro-4-fluorophenyl)-5-(methoxycarbonyl)-2-(thiazol-2-yl)-3,6-dihydropyrimidin-4-yl)methyl)-3-thioxohexahydroimidazo[1,5-a]pyrazin-2(3H)-yl)-2,2-dimethylpropanoic acid]: the EC50 in the series on HBV was 0.0019 µM. In addition, in the series with HepG2.2.15 cells, the CC50 was determined as 23.1 µM. Besides, the clearance in series [1] (male, SD, rat plasma, IV, nominal 2 mg/kg, read-out: IV Cl) turned out to be 28.8 mL/min/kg. This compound yielded a Cmax in series [1] (male, SD, rat plasma, PO, nominal 5 mg/kg) of 962 ng/mL. Moreover, the “IV AUCinf/Dose” value in series [1] (rat plasma, IV, nominal 2 mg/kg) came out at 594.3 ng·kg·h/mg/mL. For the same compound, the “PO AUCinf/Dose” value in series [1] (rat plasma, PO) was found to be 336.8 ng·kg·h/mg/mL. In series [1] (setting [4]), the “clearance, in words” value is reported as “far slower clearance” and the “dose-normalized AUC (AUCinf/Dose), in words” value is given as “over two-folds higher”. The same compound returned a F in series [1] (rat, PO vs IV) of 56.5%. Further, in series [1] (rat, comparing with reference 2), the “bioavailability (F (%)), in words” value is “increased (or equal) bioavailability”. Also, the “metabolic stability in human hepatocyte cells, in words” value with human hepatocytes (comparing with reference 1 and reference 2) is “improved metabolic stability”. The half-life at 1 uM in series [2] (1.0 μM, 0-120 min, read-out: T½) is greater than 4.82 h. In series [2] (scale-up intrinsic clearance, scaling factor 2544.3, read-out: Clint (liver)), the CLint scaled at 1 uM was less than 6.1 mL/min/kg.
As to `CCOC(=O)C1=C(CN2CCN3C(=S)N(CC4(C(=O)O)CC4)CC3C2)NC(c2nccs2)=N[C@H]1c1cccc(F)c1C` (single isomer, unassigned) [Compound 9B], the EC50 in the series with HBV was 0.0007 µM. The compound also had a CC50 in the series on HepG2.2.15 cells of 14.6 µM.
On to `CCOC(=O)C1=C(CN2CCN3C(=S)N([C@@H]4CC[C@H](C(=O)O)C4)CC3C2)NC(c2nccs2)=N[C@H]1c1cccc(F)c1C` (single isomer, unassigned) [Compound 24B], for which, in the series on HBV, the EC50 was 0.001 µM. This compound also had a CC50 in the series on HepG2.2.15 cells of 9.6 µM.
The like results for `COC(=O)C1=C(CN2CCN3C(=S)N(CC(C)(C)C(=O)O)CC3C2)NC(c2nccs2)=NC1c1ccc(F)cc1Cl` (single isomer, unassigned) [Compound 4A, 3-(7-((6-(2-chloro-4-fluorophenyl)-5-(methoxycarbonyl)-2-(thiazol-2-yl)-3,6-dihydropyrimidin-4-yl)methyl)-3-thioxohexahydroimidazo[1,5-a]pyrazin-2(3H)-yl)-2,2-dimethylpropanoic acid] were, in that order, 0.049 µM and 52.8 µM.
As for `CCOC(=O)C1=C(CN2CCN3C(=S)N(CC(C)(C)C(=O)O)CC3C2)NC(c2nccs2)=N[C@H]1c1cccc(F)c1C` (single isomer, unassigned) [Compound 1B], in the series on HBV, the EC50 amounted to 0.043 µM. Further, the CC50 with HepG2.2.15 cells was 22.4 µM.
As to `CCOC(=O)C1=C(CN2CCN3C(=S)N(C[C@@H](C)C(=O)O)C[C@@H]3C2)NC(c2ncoc2C)=NC1c1cccc(F)c1C` (single isomer, unassigned) [Compound 32B, 3-(7-((5-(Ethoxycarbonyl)-6-(3-fluoro-2-methylphenyl)-2-(5-methyloxazol-4-yl)-3,6-dihydropyrimidin-4-yl)methyl)-3-thioxohexahydroimidazo[1,5-a]pyrazin-2(3H)-yl)-2-methylpropanoic acid], the EC50 in the series with HBV was 0.0274 µM. Also, the CC50 in the series on HepG2.2.15 cells was determined as 42.5 µM.
In the case of `CCOC(=O)C1=C(CN2CCOCC2)NC(c2nccs2)=NC1c1ccc(F)cc1Br` (centres unmarked) [Reference 1, GLS4, reference compound], in series [3] (mice liver, PO), the “Liver AUCinf/Dose” value was 69.2 ng·kg·h/g/mg and the “Liver Cmax/Dose” value was 5.1 kg·ng/mg/mL. For the same compound, in series [3] (setting [5]), the “IV AUCinf/Dose” value was 232.5 ng·kg·h/mg/mL and the “IV Cl” value is on record as 73.9 mL/min/kg. The “PO AUCinf/Dose” value in series [3] (mice plasma, PO) came out at 17.3 ng·kg·h/mg/mL. Moreover, the “PO Cmax” value in series [3] (mice plasma, PO, dose per compound in table (5.28-9.95 mg/kg)) stood at 14.5 ng/mL. The compound also registered a F in series [3] (mice, PO vs IV) of 7.5%. This compound also showed a T½ in the series with human hepatocytes (human hepatocytes, 1.0 μM, 0-120 min) of 0.255 h. Further, in the series on human hepatocytes (human hepatocytes, scale-up intrinsic clearance, scaling factor 2544.3), the “Clint (liver)” value was found to be 115.3 mL/min/kg.
`CCOC(=O)C1=C(CN2CCN3C(=S)N([C@H]4CC[C@@H](C(=O)O)C4)CC3C2)NC(c2nccs2)=N[C@H]1c1cccc(F)c1C` (single isomer, unassigned) [Compound 24D]: the EC50 with HBV is 0.035 µM. In the series on HepG2.2.15 cells, this compound came in with a CC50 of 9.4 µM.
For the compound `CCOC(=O)C1=C(CN2CCN3C(=S)N(C)C[C@@H]3[C@H]2C(=O)O)NC(c2nccs2)=N[C@H]1c1cccc(F)c1C` (single isomer, unassigned) [Compound 35B], in the series on HBV, the EC50 is 0.0011 µM. The same compound yielded a CC50 in the series with HepG2.2.15 cells of 46.6 µM.
Consider `CCOC(=O)C1=C(CN2CCN3C(=S)N(CC(C)C(=O)O)C[C@@H]3C2)NC(c2nccs2)=N[C@H]1c1cccc(F)c1C` (single isomer, unassigned) [Compound 27B], for which the EC50 with HBV was found to be 0.0026 µM. This compound also gave a CC50 with HepG2.2.15 cells of 25.3 µM.
